This note sets out measurements from a melting point compilation (Tetko et al.; mined from patent text by program, amines drawn as free bases though some values may be those of a salt).

The melting point is the temperature of the solid-liquid transition.

With `COP(=O)(CC(=O)COc1ccc(Cl)cn1)OC`, the melting point was 37 to 40 °C.
With `Cc1nc2ccc(F)cc2c2c1ncn2C` the figure was 184 to 186 °C.
In turn, `Cc1cc(NC(=O)c2ccccc2C)ccc1C(=O)O` came in with a melting point of 231 to 233 °C.
`O=C(O)c1cn(-c2ccc(F)cc2)c2c(F)c(N3Cc4ccc(Cl)cc4C3)c(F)cc2c1=O`: the melting point is > 300 °C.
Regarding `CCOC(=O)C1=Cc2cc(C#N)ccc2OC1C(F)(F)F` (stereo not given), the melting point fell in the range of 102 to 106 °C.
`CCNC(=O)n1nc(Oc2ccc([N+](=O)[O-])c(C(F)(F)F)c2)cc1C`: the melting point was 95 to 97 °C.
As for `COc1cc(C=CC(=O)Nc2cnc3ccc(C(C)C)cc3c2-c2ccccc2Cl)cc(OC)c1OC(C)=O`, the melting point was determined as 138 °C.
With `Cc1cc(C2(C(F)(F)F)CC(c3ccc(C(N)=O)cc3)=NO2)ccc1NC(=O)c1cccc(I)c1C(=O)NC(C)C` (stereo not given), the melting point lay in the range of 173 to 175 °C.
The figure for `CC1CN(c2c(F)c(F)c3c(=O)c(C(=O)O)cn(C4CC4)c3c2F)CCN1` (stereo not given) is 235 to 237 °C; for `CCCCCCC1C(=O)NC(C(=O)SC2CCCCC2)(C(O)C2C=CCCC2)C1(C)O` (stereo not given) it is 85 °C.
For the molecule `COC(=O)c1ccc(OC)c(NC(=O)C[C@H]2O[C@H](c3cccc(OC)c3OC)c3cc(Cl)ccc3N(CC(C)(C)COC(C)=O)C2=O)c1`, the melting point fell in the range of 138 to 140 °C.
`C=CCc1cccc(C[C@H](NC(=O)OC(C)(C)C)[C@H](O)CCl)c1` came in with a melting point of 123 to 126 °C.
`O=S(=O)(c1cccc2ccccc12)c1n[nH]c2ccc(OC3CCCNC3)cc12` (stereo not given) came in with a melting point of 178 to 180 °C.
Molecule `C=CCC(CO)C(O)c1cccnc1` (stereo not given) yielded a melting point of 112 to 113 °C.
With `Cc1cc(-c2noc(C3CC3)n2)cc(C)c1OCCCc1cc(O)no1` the figure was 155 to 156 °C; with `COc1ccc(CNc2ncnc3c(N4CCOCC4)nc(N4CCC(N(C)C)CC4)nc23)cc1`, 124 to 126 °C; with `CC(C)NC(=O)N1CCc2[nH]cnc2C1`, 190 °C.
The figure for `Cc1ccc2ccc(O)c(CC(=O)O)c2c1` is 138 to 140 °C.
The figure for `CNC(=O)c1ccccc1Nc1nc(Nc2ccc3c(c2)CCN(CC(F)(F)F)CC3)ncc1Cl` is 177 to 190 °C; for `CCOC(=O)c1ccc2nc3ccsc3c(=O)n2c1` it is 188 to 190 °C.
As for `Clc1cc(CCc2ccccn2)c2oc(-c3ccsc3)nc2c1`, the melting point lay in the range of 126 to 127 °C.
The figure for `O=C1CSC(=S)N1C(=O)Nc1ccc2nc(S)sc2c1` is 212 to 217 °C.
With `O=[N+]([O-])c1cc(OCc2ccccc2)ccc1CCCl`, the melting point lay in the range of 38 to 40 °C.
`O=C(Nc1ccc(Cc2nnn[nH]2)cc1)C(F)(F)C(F)(F)C(F)(F)C(F)(F)C(F)(F)C(F)(F)C(F)(F)C(F)F` came in with a melting point of 188 to 190 °C.
Take `O=C(O)c1cc(CC(C(=O)O)C(=O)O)c2ccccn2c1=O`: the melting point was > 250 °C.
`Cc1nnc(SCC2=C(C(=O)O)N3C(=O)C(N)C3SC2)s1` (stereo not given) displayed a melting point of 206 °C.
The figure for `CC(=O)CCc1cc(F)c2ncc(C(=O)NCc3ccc(Cl)cc3)c(O)c2c1` is 218 to 222 °C; for `COc1ccc(C(=O)Cc2ccncc2Cl)cc1OC1CCCC1` it is 124 to 125 °C.
As for `O=C1N(C2=NCCS2)c2ccccc2C12SCCS2`, the melting point lay within 154 to 157 °C.
With `CCC(O)c1ccc(Cl)c2nc3n(c12)CCCN3c1c(Cl)cc(OC)cc1Cl` (stereo not given) the figure was 206 to 208 °C.
Molecule `COc1ccc(-c2ccc(C(=O)O)cc2)cc1OCCCCc1ccccc1` displayed a melting point of 178 to 179 °C.
In the case of `NCCCP(=O)(O)Cc1ccccc1`, the melting point is 69 to 72 °C.
Molecule `COC(=O)c1coc2ccc(OCc3ccccc3)cc2c1=O` yielded a melting point of 88 to 89 °C.
For the molecule `O=C(O)Cc1cccc2c(=O)cc(-c3ccccc3F)oc12`, the melting point lay in the range of 179 to 181 °C.
The figure for `COC(=O)c1ccc(CNC(=O)c2ccc3n2Cc2ccccc2N(C(=O)COc2ccc(Cl)cc2C)C3)cc1` is 165 to 167 °C; for `CCCC(CCC)c1ccc(OCc2ccc(-c3csc(COc4cncc(C(=O)O)c4)c3)cc2)cc1` it is 157 to 159 °C.
`O=S1(=O)c2cccc3cccc(c23)N1CCCN1CCN(c2ccc(O)cc2)CC1` registered a melting point of 185 °C.
The molecule `COC(=O)C1=C(C#N)NC(C)=C(P2(=O)OCCCO2)C1c1ccccc1[N+](=O)[O-]` (stereo not given) gave a melting point of 228 to 229 °C.
`CN(CCOc1ccc(CC2SC(=O)NC2=O)cc1)c1nccs1` (stereo not given) displayed a melting point of 186 °C.
As for `Cc1ccccc1-c1c(NC(=O)Nc2c(C)cccc2C(C)C)c(=O)oc2ccc(Cl)cc12`, the melting point lay in the range of 237 to 238 °C.
In turn, `CC(C)(C)CNc1nc(C#N)nc2ccc(OCc3ccncc3)cc12` gave a melting point of 203 to 205 °C.
Regarding `COc1ccccc1Cc1ccc(-c2cnn3c(O)ncnc23)cc1`, the melting point lay in the range of 246 to 256 °C.
`O=C(Nc1cnccn1)C(Cl)(Cl)Cl` showed a melting point of 68 °C.
Molecule `COc1cc(OC)c2c(=O)oc(=O)[nH]c2c1` showed a melting point of 287 to 293 °C.
As for `CC1(C)CC(N(c2nc(F)nc(N(C3CC(C)(C)NC(C)(C)C3)C3CC(C)(C)NC(C)(C)C3)n2)C2CC(C)(C)NC(C)(C)C2)CC(C)(C)N1`, the melting point fell in the range of 298 to 304 °C.
`COc1ccc(C2(C)CCc3cc(OC)ccc3C2CCCCCCO)cc1` (stereo not given) gave a melting point of 76 to 83 °C.
Molecule `Nc1ccc2c(c1)C(=O)N(c1ccc(C(=O)O)cc1)C2=O` came in with a melting point of 270 to 271 °C.
Regarding `CCCCc1cn(Cc2ccc(-c3ccccc3C(=O)O)cc2)c2cccc(SC)c2c1=O`, the melting point worked out at 155 °C.
Molecule `CCOC(=O)C(C#N)C1(C#N)C(=O)N(Cc2ccc(C)cc2)c2c(C)cccc21` (stereo not given) had a melting point of 128 to 130 °C.
The figure for `COCCOc1ccc(CCCOC(=O)NS(=O)(=O)NCCOC(C)C)c(Oc2ncc(C(F)(F)F)cc2Cl)c1` is 114 °C; for `O=c1cc(-c2ccc(O)c(F)c2)oc2ccc(CO)cc12` it is 256 to 258 °C; for `CCc1nc2c(N3CCOCC3)ncn(CC)c-2n1` it is 103 to 107 °C.
The figure for `CN1N=C2C(=Cc3ccccc3)CN(C(N)=O)CC2C1c1ccccc1` (stereo not given) is 191 to 193 °C.
`COCCCCCNC(=O)C(c1ccccc1)c1ccccc1` yielded a melting point of 74.2 to 75 °C.
`CC(C)(C)OC(=O)N(CCN)CCN(CCN)C(=O)OC(C)(C)C` came in with a melting point of 81 to 82 °C.
The figure for `CCOC(=O)c1cnc2sccc2c1Sc1nnc(C)s1` is 93 to 94 °C; for `C[C@H](CO)Nc1cc(-n2cccn2)nc(-c2cccs2)n1` it is 136 to 137 °C; for `Nc1nc2cc(CO)ccc2n1Cc1cccc2cccnc12` it is > 260 °C.
For `OC1CSC(Oc2cc(-c3ccccn3)ccc2Cl)C(O)C1O` (stereo not given), the melting point came out at 108 °C.
Consider `CCOC(=O)c1cc2cc(C)cc(C)c2[nH]1`, for which the melting point lay in the range of 141 to 143 °C.
For `O=c1c2cc(F)c(N3CCCC3)nc2n(-c2cccc(C(F)(F)F)c2)c(=O)n1OCc1ccccc1`, the melting point is > 250 °C.
`CC(C)C(c1cccc(NC(=O)OCc2ccccc2)c1)c1c(O)c2c(oc1=O)CCCCCC2` (stereo not given) returned a melting point of 96 to 101 °C.
In turn, `O=C(O)c1ccc(-n2c(-c3ccccc3)cc3c2CCCC3)cc1O` displayed a melting point of 193 to 195 °C.
For `Cc1cccnc1COc1nn2c(-c3ccccc3)nnc2cc1C12CCC(CC1)C2`, the melting point was in the range of 214 to 216 °C.
Consider `CCC(=O)N1CCC(NC(=O)Nc2ccc(C(=O)OC)cc2)CC1`, for which the melting point lay within 201 to 204 °C.
In turn, `CS(=O)(=O)c1ccc(NC(=O)c2ccccc2Br)cc1` had a melting point of 168 to 169 °C.
Take `CC1=NC(C)=C(c2ccc(Oc3ccc(S(C)=O)cc3)cc2)C(=O)C1Br` (stereo not given): the melting point lay in the range of 262 to 263 °C.
On to `Cc1cc(-c2ccc(C(F)(F)F)cc2)cc(-c2ccnc(-c3cccc(S(N)(=O)=O)c3)c2)n1`, for which the melting point is > 250 °C.
Consider `CS(=O)(=O)c1ccc(-c2ccc3cnc(Nc4ccc(N5CCCCC5)cc4)nn23)cc1`, for which the melting point was in the range of 204 to 209 °C.
With `O=C(Nc1ccc(C(F)(F)F)cc1)C1CC(c2ccc(F)cc2)N(c2ccc(Cl)cc2)N1` (stereo not given) the figure was 50 to 55 °C.
In turn, `CC(C)C(=O)ON(C(=O)NN(C)C)C1c2ccccc2Oc2ccccc21` gave a melting point of 131 to 132 °C.
Turning to `COc1ccc2c(c1OC)CCC(NC(=O)C(F)(F)F)C2=O` (stereo not given), the melting point is 166 to 167 °C.
In the case of `CC(C)CC(CO)(CO)CC(C)C`, the melting point lay within 75 to 77 °C.
The figure for `CCN(C(=O)n1nnc2cc(C)c(C)cc21)c1ccccc1` is 136 °C; for `Cn1c(=O)oc2cc(C(O)CCN3CCOCC3)ccc21` (stereo not given) it is 132 °C.
Molecule `CC1(C)CCOc2ccc(C3(C)C=CC=CC3C=O)cc21` (stereo not given) had a melting point of 85 to 86 °C.
`CC(C)(C)C(NC(=O)Cc1ccc(Cl)cc1)NC(=NC#N)Nc1cccc2ncccc12` (stereo not given): the melting point was in the range of 195 to 196 °C.
Turning to `O=C(Cc1cccc(C(F)(F)F)c1)Nc1c(Br)cccc1Br`, the melting point was 169 to 170 °C.
With `Cc1nc2ccc(S(=O)(=O)n3c(COC(C)C(=O)O)cc4cc(Cl)ccc43)cc2s1` (stereo not given), the melting point is 106 to 108 °C.
With `CC(C)(C)CNc1nc(N2CCCC2)cc(N2CCNCC2)n1` the figure was 118 to 120 °C; with `COc1cc2c(cc1C#N)C1(CO2)C(=O)N(Cc2ccccn2)c2ccccc21` (stereo not given), 187 to 189 °C.
Regarding `Cc1cc(Cl)cc(C(=O)NCC(C)O)c1NC(=O)c1cc(C(F)(F)F)nn1-c1ncccc1Cl` (stereo not given), the melting point lay within 193 to 197 °C.
With `FC(F)(F)c1cccc2c(-c3ccccc3)c(Sc3ccccc3)cnc12` the figure was 153 to 155 °C.
The figure for `COc1ccc(C2(O)CCN(c3ccc(OC)nc3-c3ccc(OC(F)(F)F)cc3)CC2)cc1` is 100 to 112 °C; for `N#Cc1nc(C#Cc2ccccc2)c(C#Cc2ccccc2)nc1C#N` it is 226 to 227 °C.
